Assays:
[1] = target: soluble human BACE1 catalytic domain (Homo sapiens (Human), UniProt P56817); test: BACE1 HTRF FRET Assay; format: biochemical; conditions: calculated from IC50 using the Cheng-Prusoff equation; read-out: BACE-1 Ki
Description: Na^+-Acetate pH 5.0; 1% Brij-35; Glycerol; Dimethyl Sulfoxide (DMSO); Recombinant human soluble BACE1 catalytic domain (>95% pure); APP Swedish mutant peptide substrate (QSY7-APP^swe-Eu): QSY7-[…]-Europium-amide.
A homogeneous time-resolved FRET assay was used to determine IC50 values for inhibitors of the soluble human BACE1 catalytic domain. This assay monitored the increase of 620 nm fluorescence that resulted from BACE1 cleavage of an APPswedish APP^swe mutant peptide FRET substrate (QSY7-[…]-Europium-amide). This substrate contained an N-terminal QSY7 moiety that served as a quencher of the C-terminal Europium fluorophore (620 nm Em). In the absence of enzyme activity, 620 nm fluorescence was low in the assay and increased linearly over 3 hours in the presence of uninhibited BACE1 enzyme. Inhibition of BACE1 cleavage of the QSY7-APP^swe-Eu substrate by inhibitors was manifested as a suppression of 620 nm fluorescence.
Reactions were initiated by addition of 10 μl of 600 nM QSY7-APP^swe-Eu substrate (200 nM final) to give a final reaction volume of 30 μl in a 384 well Nunc HTRF plate. The reactions were incubated at 30° C. for 1.5 hours. The 620 nm fluorescence was then read on a Rubystar HTRF plate reader (BMG Labtechnologies) using a 50 […]s delay followed by a 400 millisecond acquisition time window. Inhibitor IC50 values were derived from non-linear regression analysis of concentration response curves.

[2] = target: purified human autoBACE-2 (Homo sapiens, UniProt Q9Y5Z0); test: BACE-2 Assay (BACE-HTRF assay); format: biochemical; conditions: calculated from IC50 using the Cheng-Prusoff equation
Chain of purified human autoBACE-2 (Q9Y5Z0 63-518 limits assumed): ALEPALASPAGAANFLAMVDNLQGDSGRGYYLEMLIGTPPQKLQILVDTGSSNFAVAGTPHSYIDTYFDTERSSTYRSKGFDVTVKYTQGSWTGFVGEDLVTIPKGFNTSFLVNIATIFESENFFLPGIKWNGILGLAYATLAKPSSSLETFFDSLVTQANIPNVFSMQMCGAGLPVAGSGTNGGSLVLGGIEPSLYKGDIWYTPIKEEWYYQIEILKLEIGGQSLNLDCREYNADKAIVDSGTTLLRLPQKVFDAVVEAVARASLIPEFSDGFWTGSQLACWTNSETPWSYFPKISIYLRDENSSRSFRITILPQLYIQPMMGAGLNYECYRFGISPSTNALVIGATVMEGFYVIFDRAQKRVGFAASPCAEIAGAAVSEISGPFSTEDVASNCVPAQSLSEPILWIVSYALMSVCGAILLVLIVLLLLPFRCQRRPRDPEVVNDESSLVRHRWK
Method: DMSO was present at 5% final concentration in the assay. Following laser excitation of sample wells at 320 nm, the fluorescence signal at 620 nm was collected for 400 ms following a 50 μs delay on a RUBYstar HTRF plate reader (BMG Labtechnologies). […] The Ki values were calculated from the IC50 using the Cheng-Prusoff equation.

Chain of soluble human BACE1 catalytic domain (P56817 75-416): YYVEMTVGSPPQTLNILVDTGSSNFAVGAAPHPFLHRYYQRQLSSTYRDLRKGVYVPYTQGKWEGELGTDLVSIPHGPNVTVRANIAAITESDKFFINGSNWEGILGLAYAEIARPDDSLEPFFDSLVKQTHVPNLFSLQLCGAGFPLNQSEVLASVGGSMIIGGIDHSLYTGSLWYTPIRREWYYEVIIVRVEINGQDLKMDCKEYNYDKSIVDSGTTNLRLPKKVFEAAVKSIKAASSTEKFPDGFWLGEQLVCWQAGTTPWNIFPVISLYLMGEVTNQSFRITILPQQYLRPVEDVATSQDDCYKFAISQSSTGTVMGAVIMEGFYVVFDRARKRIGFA

Work on `CC(=O)N1CC2[C@](c3cc(NC(=O)c4ccc(F)cn4)ccc3F)(C1)NC(=N)N(C)S2(=O)=O` (mixture of isomers) [Ex. 18] yielded a Ki [1] of 32 nM and a Ki [2] of 3.2 nM.
Work on `COc1nc(N2CC3[C@](c4cc(NC(=O)c5ccc(F)cn5)ccc4F)(C2)NC(=N)N(C)S3(=O)=O)nc(C)c1F` (mixture of isomers) [Ex. 19] yielded a Ki [1] of 1.2 nM and a Ki [2] of 1.6 nM.
With `CCOCc1cc(OC)nc(N2CC3C(c4ccccc4)(C2)NC(=N)N(C)S3(=O)=O)c1` (racemic) [Ex. 11] the Ki [1] was 61 nM.
`COc1nc(N2CC3C(c4ccccc4)(C2)NC(=N)N(C)S3(=O)=O)nc(OC)c1F` (racemic) [Ex. 13] showed a Ki [1] of 30 nM.
Work on `CCc1nc(N2CC3C(c4ccccc4)(C2)NC(=N)N(C)S3(=O)=O)nc(OC)c1F` (racemic) [Ex. 15] yielded a Ki [1] of 82 nM.
`Cc1cccc(N2CC3C(c4ccccc4)(C2)NC(=N)N(C)S3(=O)=O)c1` (racemic) [Ex. 17] was tested, and the Ki [1] was 1560 nM.
`COc1nc(N2C[C@@H]3[C@](c4ccc(F)cc4)(C2)NC(=N)N(C)S3(=O)=O)nc(C)c1F` (stereo in doubt) [Ex. 2] showed a Ki [2] of 14 nM.
With `COc1nc(N2C[C@@H]3[C@](c4cc(F)ccc4F)(C2)NC(=N)N(C)S3(=O)=O)nc(C)c1F` (stereo in doubt) [Ex. 3] the Ki [2] was 14 nM.
For `COc1nc(N2C[C@@H]3[C@](c4ccccc4F)(C2)NC(=N)N(C)S3(=O)=O)nc(C)c1F` (stereo in doubt) [Ex. 4], the Ki [2] was 5.4 nM.
Work on `COc1nc(N2C[C@@H]3[C@](c4cc(F)c(F)cc4F)(C2)NC(=N)N(C)S3(=O)=O)nc(C)c1F` (stereo in doubt) [Ex. 5] yielded a Ki [1] of 32 nM and a Ki [2] of 19 nM.
Work on `COCc1cc(OC)nc(N2C[C@@H]3[C@](c4cc(F)ccc4F)(C2)NC(=N)N(C)S3(=O)=O)c1` (stereo in doubt) [Ex. 9] yielded a Ki [2] of 1.7 nM.
`COc1nc(N2C[C@@H]3[C@](c4ccccc4)(C2)NC(=N)N(C)S3(=O)=O)nc(C)c1F` [Ex. 1] was tested, and the Ki [2] was 16 nM.
`COc1nc(N2CC3[C@](c4ccc(F)cc4F)(C2)NC(=N)N(C)S3(=O)=O)nc(C)c1F` (some centres unmarked) [Ex. 6] showed a Ki [2] of 8.5 nM.
`COCc1cc(OC)nc(N2CC3[C@](c4cc(F)c(F)cc4F)(C2)NC(=N)N(C)S3(=O)=O)c1` (some centres unmarked) [Ex. 7] gave a Ki [1] of 7 nM and a Ki [2] of 3.2 nM.
With `COCc1cc(OC)nc(N2CC3[C@](c4ccccc4F)(C2)NC(=N)N(C)S3(=O)=O)c1` (some centres unmarked) [Ex. 8] the Ki [1] was 7 nM and the Ki [2] was 5 nM.
